Results on one molecule are retold here after PMC7179450, “Primary Human Hepatocytes, But not HepG2 or Balb/c 3T3 Cells, Efficiently Metabolize Salinomycin and Are Resistant to Its Cytotoxicity” (Molecules, 2020).

Like-named read-outs stand apart in the source and are kept apart here.

For data set [1], the system named is primary human hepatocytes (PHH). Description: NRU assay (neutral red uptake, lysosomal activity) in primary human hepatocytes. Particulars: for EC50: Homo sapiens, Hepatocyte, mean ± SEM, n = 3, read-out: EC50 (effective concentration). It counts as cell-based. As for the experimental part:
Cryopreserved PHH were purchased from the Primacyt GmbH (Schwerin, Germany). Two different lots were chosen based on CYP activity. The donor was a person. The post-thaw viability was 94.6% for lot HH160531 (used in two repetitions) and 85.0% for lot HH130805. The initial cell viability was determined with the trypan blue exclusion test. The cells were thawed and purified using the Plating and Thawing Kit (Primacyt GmbH). Purified hepatocytes were resuspended in Hepatocyte Plating Medium (Primacyt GmbH) and seeded on collagen-coated 96-well plates at a density of 9 × 10^5 cell/mL and incubated at 37 °C with 5% CO2. After 6 h of incubation, the medium was removed and the cells were washed with PBS. Then Human Hepatocyte Maintenance Medium (HHMM) (Primacyt GmbH) with the studied drugs was added to hepatocytes (100 µL/well). The culture conditions were kept according to the manufacturer’s protocol.
(§1) The concentration ranges of the drugs were chosen according to their solubility and their plasma level. Each drug was dissolved in DMSO. The final concentration of DMSO was 0.1% or 0.2% in the medium for both samples and corresponding controls. […] All drug solutions in medium were freshly prepared and protected from light. SAL was tested in seven concentrations from 0.39 to 25 µg/mL. Tiamulin was added in two concentrations (1 and 10 µg/mL) or just one concentration (1 µg/mL) to cell lines or human hepatocytes, respectively. Prednisolone was tested in one concentration—1 µg/mL independent of the type of cells. […] The cytotoxicity was assessed after 24 and 48 h of exposure of cell lines or after 12 and 24 h exposure of PHH. […]
The assay, based on staining of living cells by neutral red (NR), was performed according to the protocol described by Borenfreund and Puerner. […] After 10 min of shaking, the absorbance of the dissolved NR was measured at 540 nm using a blank as a reference. Cytotoxicity was expressed as a percentage of the negative control (0.1% or 0.2% DMSO).

The nature of data set [2]: Cytotoxicity battery in fibroblasts. Particulars: mouse, Balb/c 3T3 fibroblasts, inhibiting lysosomal and mitochondrial activity and synthesis of cellular proteins, read-out: cytotoxic concentrations. It counts as cell-based. The procedure: as §1
The metabolic activity of living cells was assessed by measuring the activity of dehydrogenases. […] The plate was shaken for 15 min at room temperature and transferred to a microplate reader to measure the absorbance at 570 nm, using a blank as a reference. Cytotoxicity was expressed as a percentage of the negative control (0.1% or 0.2% DMSO).
The assay, based on staining of living cells by neutral red (NR), was performed according to the protocol described by Borenfreund and Puerner. […] After 10 min of shaking, the absorbance of the dissolved NR was measured at 540 nm using a blank as a reference. […]

For data set [3] the following is noted: mouse, in vivo; cited from earlier work.

For the molecule `CC[C@@H](C(=O)[C@@H](C)[C@@H](O)[C@H](C)[C@@H]1O[C@@H]([C@@H](CC)C(=O)O)CC[C@@H]1C)[C@H]1O[C@]2(C=C[C@@H](O)[C@]3(CC[C@@](C)([C@H]4CC[C@](O)(CC)[C@H](C)O4)O3)O2)[C@H](C)C[C@@H]1C` [SAL, salinomycin], the EC50 in data set [1] (12 h exposure) is 20.4 ± 1.9 µg/mL; in data set [1] (24 h exposure) it was 19.8 ± 1.6 µg/mL; in data set [2], 0.6 to 10 µg/mL. Besides, the “concentration at which SAL first affected lysosomal activity” value in data set [1] (after 24 h (Figure S1)) worked out at 1.56 µg/mL. In data set [3], the “unchanged SAL in excreta, share of administered dose” value is on record as 2%.
